Experimental data reported in PubChem BioAssay AID328 (DTP/NCI, 2004).
“And” between values parts separate entries of the source, which are not always exact repeats. Equal entries are not always repeated. Inconclusive results and toxic doses are left out. Rule for the calls: active = survival T/C of 150% or more; inactive = T/C below 125% in these data.

System: BDF1 mice, P388 leukemia ip, median survival T/C
Assay: NCI In Vivo Anticancer Drug Screen. Data for tumor model P388 Leukemia (intraperitoneal) in B6D2F1 (BDF1) mice
Conditions: endpoint: median survival time, higher = longer survival
Outline: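 Reported as T/C, where T is the survival measurement in dosed animals and C the same measurement in vehicle controls.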

[1] = dose: 25.0 mg/kg/injection, schedule: Q01DX009 (ip), vehicle: saline with Tween-80
[2] = dose: 50.0 mg/kg/injection, schedule: Q01DX009 (ip), vehicle: saline with Tween-80
[3] = dose: 100.0 mg/kg/injection, schedule: Q01DX009 (ip), vehicle: saline with Tween-80
[4] = dose: 200.0 mg/kg/injection, schedule: Q01DX009 (ip), vehicle: saline with Tween-80
[5] = dose: 100.0 mg/kg/injection, schedule: Q04DX003 (ip), vehicle: saline with Tween-80
[6] = dose: 200.0 mg/kg/injection, schedule: Q04DX003 (ip), vehicle: saline with Tween-80
[7] = dose: 50.0 mg/kg/injection, schedule: Q01DX009 (ip), vehicle: Klucel (hydroxypropylcellulose) (HPC)
[8] = dose: 100.0 mg/kg/injection, schedule: Q01DX009 (ip), vehicle: Klucel (hydroxypropylcellulose) (HPC)
[9] = dose: 400.0 mg/kg/injection, schedule: Q04DX003 (ip), vehicle: saline with Tween-80

Measured: T/C

CC(=O)[C@H]1CC[C@H]2[C@@H]3C[C@H](C)C4=CC(=O)CC[C@]4(C)[C@@]3(F)[C@@H](O)C[C@]12C
inactive: [1] 118 % of control | [2] 109 % of control | [3] 104 % of control and 109 % of control

O=C1/C(=C/c2ccc(Cl)cc2)SC(=S)N1CCCN1CCOCC1
inactive: [2] 91 % of control | [3] 88 % of control | [4] 91 % of control

CCOC(=O)CCC[P+](c1ccccc1)(c1ccccc1)c1ccccc1
active: dose: 75.0 mg/kg/injection, schedule: Q01DX009 (ip), vehicle: saline with Tween-80 152 % of control
inactive: dose: 5.0 mg/kg/injection, schedule: Q01DX009 (ip), vehicle: saline with Tween-80 101 % of control | dose: 10.0 mg/kg/injection, schedule: Q01DX009 (ip), vehicle: saline with Tween-80 100 % of control | dose: 13.2 mg/kg/injection, schedule: Q01DX009 (ip), vehicle: saline with Tween-80 118 % of control | dose: 20.0 mg/kg/injection, schedule: Q01DX009 (ip), vehicle: saline with Tween-80 101 % of control and 122 % of control | dose: 30.0 mg/kg/injection, schedule: Q01DX009 (ip), vehicle: saline with Tween-80 118 % of control | [2] 113 % of control | [3] 118 % of control | [5] 110 % of control | dose: 160.0 mg/kg/injection, schedule: Q01DX009 (ip), vehicle: saline with Tween-80 121 % of control | [6] 115 % of control

CCCCCCNC(=S)/N=C(\N)n1nc(C)cc1C
inactive: [2] 109 % of control | [3] 99 % of control | [4] 112 % of control

CCCCNC(=O)OC
inactive: [7] 100 % of control | dose: 50.0 mg/kg/injection, schedule: Q04DX003 (ip), vehicle: Klucel (hydroxypropylcellulose) (HPC) 100 % of control | [8] 100 % of control | dose: 100.0 mg/kg/injection, schedule: Q04DX003 (ip), vehicle: Klucel (hydroxypropylcellulose) (HPC) 95 % of control | dose: 200.0 mg/kg/injection, schedule: Q04DX003 (ip), vehicle: Klucel (hydroxypropylcellulose) (HPC) 115 % of control

O=C(O)CNC(=O)CCl
inactive: dose: 25.0 mg/kg/injection, schedule: Q01DX009 (ip), vehicle: Klucel (hydroxypropylcellulose) (HPC) 110 % of control | [7] 120 % of control | [8] 120 % of control | dose: 225.0 mg/kg/injection, schedule: Q01DX009 (ip), vehicle: Klucel (hydroxypropylcellulose) (HPC) 86 % of control

O=C1SC2(CCCCC2)SC1=O
inactive: [1] 95 % of control | [2] 95 % of control | [3] 104 % of control

CN1CCc2cc3c(cc2/C1=C1\OC(=O)c2c1ccc1c2OCO1)OCO3
inactive: [5] 88 % of control | [6] 93 % of control | [9] 101 % of control

Cc1ccc2c(ccc(/C=C/c3ccc(O)c4ncccc34)[n+]2C)c1
inactive: dose: 75.0 mg/kg/injection, schedule: Q01DX009 (ip), vehicle: Klucel (hydroxypropylcellulose) (HPC) 104 % of control

C=CCCCCCCCCCCCCCCCC (tested in a mixture with another compound)
inactive: dose: 50.0 mg/kg/injection, schedule: Q01DX009 (ip), vehicle: other 113 % of control

CSc1ccc(NC(=O)NN(c2ccccc2)C2CCS(=O)(=O)C2)cc1 (configuration not stated)
inactive: [2] 100 % of control | [3] 102 % of control | [4] 101 % of control

Cc1cccc(C)c1NC(=O)N(CCCl)N=O
inactive: dose: 12.5 mg/kg/injection, schedule: Q04DX003 (ip), vehicle: saline with Tween-80 86 % of control | dose: 25.0 mg/kg/injection, schedule: Q04DX003 (ip), vehicle: saline with Tween-80 109 % of control
active: dose: 0.88 mg/kg/injection, schedule: Q01DX009 (ip), vehicle: saline with Tween-80 159 % of control | dose: 1.32 mg/kg/injection, schedule: Q01DX009 (ip), vehicle: saline with Tween-80 159 % of control | dose: 2.0 mg/kg/injection, schedule: Q01DX009 (ip), vehicle: saline with Tween-80 204 % of control | dose: 3.0 mg/kg/injection, schedule: Q01DX009 (ip), vehicle: saline with Tween-80 200 % of control

COc1cc(C)c(NC(=O)Oc2ccccc2)c(C)c1
inactive: [5] 104 % of control | [6] 104 % of control | [9] 104 % of control

O=C(Nc1cc(C(F)(F)F)ccc1Cl)ON1CCCCC1
inactive: dose: 12.5 mg/kg/injection, schedule: Q01DX009 (ip), vehicle: saline with Tween-80 107 % of control | [1] 94 % of control | [2] 114 % of control and 124 % of control | [3] 100 % of control and 102 % of control | [4] 91 % of control

COc1cc2c3cc1Oc1c(OC)c(OC)cc4c1C(Cc1ccc(O)c(c1)-c1cc(ccc1OC)CC3N(C)CC2)N(C)CC4 (configuration not stated)
inactive: dose: 1.56 mg/kg/injection, schedule: Q01DX009 (ip), vehicle: Klucel (hydroxypropylcellulose) (HPC) 91 % of control | dose: 3.13 mg/kg/injection, schedule: Q01DX009 (ip), vehicle: Klucel (hydroxypropylcellulose) (HPC) 87 % of control | dose: 6.25 mg/kg/injection, schedule: Q01DX009 (ip), vehicle: Klucel (hydroxypropylcellulose) (HPC) 87 % of control | dose: 50.0 mg/kg/injection, schedule: Q01DX009 (ip), vehicle: carboxymethylcellulose (CMC) 88 % of control

CC(=O)CC(=O)NCCNCCNC(=O)CC(C)=O
inactive: dose: 100.0 mg/kg/injection, schedule: Q04DX003 (ip), vehicle: saline 100 % of control | dose: 200.0 mg/kg/injection, schedule: Q04DX003 (ip), vehicle: saline 114 % of control | dose: 400.0 mg/kg/injection, schedule: Q04DX003 (ip), vehicle: saline 100 % of control

c1ccc(C2OC2(c2ccccc2)c2ccccc2)cc1 (configuration not stated)
inactive: [5] 95 % of control | [6] 104 % of control | [9] 95 % of control

CC1CC(C)(O)CC(C(O)CC2CC(=O)NC(=O)C2)C1=O (configuration not stated)
inactive: dose: 0.5 mg/kg/injection, schedule: Q04DX003 (ip), vehicle: saline 111 % of control | dose: 0.8 mg/kg/injection, schedule: Q01DX010 (ip), vehicle: saline 90 % of control | dose: 1.2 mg/kg/injection, schedule: Q04DX003 (ip), vehicle: saline 123 % of control | dose: 1.3 mg/kg/injection, schedule: Q01DX001 (sc), vehicle: saline 118 % of control | dose: 2.16 mg/kg/injection, schedule: Q01DX001 (ip), vehicle: saline 116 % of control | dose: 2.16 mg/kg/injection, schedule: Q01DX001 (sc), vehicle: saline 119 % of control | dose: 3.33 mg/kg/injection, schedule: Q04DX003 (ip), vehicle: saline 92 % of control | dose: 3.6 mg/kg/injection, schedule: Q01DX001 (ip), vehicle: saline 114 % of control | dose: 3.6 mg/kg/injection, schedule: Q01DX001 (sc), vehicle: saline 118 % of control | dose: 3.6 mg/kg/injection, schedule: Q04DX003 (ip), vehicle: saline 107 % of control | dose: 6.0 mg/kg/injection, schedule: Q01DX001 (ip), vehicle: saline 116 % of control | dose: 6.0 mg/kg/injection, schedule: Q01DX001 (sc), vehicle: saline 113 % of control | dose: 10.0 mg/kg/injection, schedule: Q01DX001 (sc), vehicle: saline 113 % of control | dose: 467.0 micrograms/kg/injection, schedule: Q04DX003 (sc), vehicle: saline 116 % of control | dose: 778.0 micrograms/kg/injection, schedule: Q04DX003 (ip), vehicle: saline 119 % of control | dose: 778.0 micrograms/kg/injection, schedule: Q04DX003 (sc), vehicle: saline 123 % of control | dose: 800.0 micrograms/kg/injection, schedule: Q01DX009 (ip), vehicle: saline 109 % of control | dose: 3600.0 micrograms/kg/injection, schedule: Q04DX003 (ip), vehicle: saline 92 % of control
active: dose: 0.4 mg/kg/injection, schedule: Q01DX010 (ip), vehicle: saline 181 % of control | dose: 2.0 mg/kg/injection, schedule: Q04DX003 (ip), vehicle: saline 161 % of control | dose: 288.0 micrograms/kg/injection, schedule: Q01DX009 (ip), vehicle: saline 155 % of control and 170 % of control | dose: 480.0 micrograms/kg/injection, schedule: Q01DX009 (ip), vehicle: saline 177 % of control

N#C[C@@H]1C2C=CC(CC2)[C@H]1C#N
inactive: dose: 0.29 mg/kg/injection, schedule: Q04DX003 (ip), vehicle: saline 95 % of control | dose: 0.44 mg/kg/injection, schedule: Q04DX003 (ip), vehicle: saline 120 % of control | dose: 0.66 mg/kg/injection, schedule: Q04DX003 (ip), vehicle: saline 100 % of control | dose: 1.0 mg/kg/injection, schedule: Q04DX003 (ip), vehicle: saline 115 % of control | dose: 1.5 mg/kg/injection, schedule: Q04DX003 (ip), vehicle: saline 100 % of control | dose: 5.0 mg/kg/injection, schedule: Q04DX003 (ip), vehicle: saline with Tween-80 100 % of control
